The record followed here is EP2969029B1, “USE OF COSMETICALLY OR DERMATOLOGICALLY SAFE SUBSTITUTED MICHAEL ACCEPTORS FOR THE PREVENTION, REDUCTION OR PROPHYLAXIS OF THE TYROSINASE ACTIVITY OF THE HUMAN SKIN AND/OR THE LIGHTENING OF THE HUMAN SKIN” (Beiersdorf AG, priority 2013, dated 2014).

As usually defined, the EC50 is the concentration giving half of the maximal effect. Read a high EC50 as lower potency in that assay.

SMILES strings stand for the structures.

For the assay, the target named is T1, humane Tyrosinase (Homo sapiens, UniProt P14679).
T1 sequence (P14679 19-529): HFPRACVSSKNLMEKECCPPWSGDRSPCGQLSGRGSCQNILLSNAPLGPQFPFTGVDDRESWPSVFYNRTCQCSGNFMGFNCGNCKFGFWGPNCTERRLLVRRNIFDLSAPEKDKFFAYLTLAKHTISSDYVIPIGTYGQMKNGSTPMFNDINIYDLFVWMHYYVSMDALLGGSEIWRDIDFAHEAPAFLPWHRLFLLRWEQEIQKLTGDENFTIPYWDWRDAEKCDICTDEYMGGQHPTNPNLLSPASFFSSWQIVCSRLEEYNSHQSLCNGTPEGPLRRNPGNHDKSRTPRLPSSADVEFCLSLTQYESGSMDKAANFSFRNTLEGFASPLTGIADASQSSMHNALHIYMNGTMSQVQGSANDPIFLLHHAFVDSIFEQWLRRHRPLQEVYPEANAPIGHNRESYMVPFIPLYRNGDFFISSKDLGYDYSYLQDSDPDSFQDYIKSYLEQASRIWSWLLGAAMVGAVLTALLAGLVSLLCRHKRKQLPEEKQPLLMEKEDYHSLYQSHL
Description: Enzyme test: conversion of L-DOPA to L-dopaquinone by human tyrosinase, MBTH detection, absorption at 490 nm. In kind it is biochemical. Particulars: Inhibition der Tyrosinaseaktivität, substrate L-DOPA.
The compound `O=C(O)/C=C/c1ccncc1` [(E)-3-(pyridin-4-yl) acrylsäure] registered an EC50 of 697 µM. Consider `O=C(O)/C=C/c1cccnc1` [(E)-3-(pyridin-3-yl)acrylsäure], for which a half-maximal response (EC50) required 634 µM. Next, `CCOC(=O)C=Cc1ccccc1` [Ethyl cinnamat]: 2590 µM; `COc1ccc(C(=O)/C=C(\O)c2ccc(C(C)(C)C)cc2)cc1` [(Z)-3-(4-(tert-butyl)phenyl)-3-hydroxy-1-(4-methoxyphenyl)prop-2-en-1-on]: 1550 µM; `O=C(O)/C=C/c1ccco1` [(E)-3-(furan-2-yl)acrylsäure]: 166 µM. Regarding `C=COC(=O)C=Cc1ccccc1` [Vinyl cinnamat], a half-maximal response (EC50) required 2610 µM. Regarding `O=C(O)c1ccccc1` [Natrium Benzoat], the EC50 worked out at 1440 µM.

On to `COC(=O)c1cc(O)ccc1O` [Methyl 2,5-Dihydroxybenzoat], for which the EC50 stood at 2450 µM.

Regarding `O=C(/C=C/c1ccc(O)cc1)NCCc1c[nH]c2ccc(O)cc12` [(E)-N-(2-(5-hydroxy-1H-indol-3-yl)ethyl)-3-(4-hydroxyphenyl)acrylamid], a half-maximal response (EC50) required 515 µM. Next, `CCCc1c[nH]c(=S)[nH]c1=O` [5-Propyl-2-thioxo-2,3-dihydropyrimidin-4(1H)-on]: 494 µM. As for `O=C(O)/C=C/c1ccc(O)c(O)c1` [(E)-3-(3,4-dihydroxyphenyl)acrylsäure], the response was half-maximal at 1370 µM (EC50).

In the case of `C/C=C/C=C/C(=O)O` [Kaliumsorbat], a half-maximal response (EC50) required 1530 µM. `COc1cc(/C=C/C(=O)O)ccc1O` [trans-Ferulasäure]: the 50% effective concentration (EC50) was 2210 µM. `C=CCOC(=O)C=Cc1ccccc1` [Allyl cinnamat] showed an EC50 of 2340 µM. As to `O=C(OCc1ccccc1)c1ccccc1` [Benzyl benzoat], a half-maximal response (EC50) required 998 µM. As to `COc1ccc(C=CC(=O)OCCC(C)C)cc1` [Isoamyl p-Methoxycinnamat], the EC50 came out at 358 µM. Regarding `O=C(C=Cc1ccccc1)OCc1ccccc1` [Benzyl cinnamat], the EC50 stood at 260 µM.

`CC1CCC(=CC(=O)O)CC1` (stereo not shown) [2-(4-Methyl-1-cyclohexyliden)essigsäure]: the EC50 was 6540 µM. In the case of `O=C(OC1CCCCC1)c1ccccc1O` [Cyclohexyl 2-hydroxybenzoat] it was 547 µM. Next, `O=CC=Cc1ccccc1` [Zinnamaldehyd]: 211 µM; `O=C(O)/C=C/c1c[nH]c2ccccc12` [(E)-3-(1H-indol-3-yl)acrylsäure]: 833 µM. `O=C(OCc1ccccc1)c1ccccc1O` [Benzyl 2-hydroxybenzoat] displayed a concentration giving a half-maximal response (EC50) of 378 µM. In the case of `CCCCCCOC(=O)c1ccccc1O` [Hexyl 2-hydroxybenzoat] it was 4230 µM; in that of `O=C(O)/C=C/c1cccs1` [(E)-3-(thiophen-2-yl)acrylsäure], 32 µM; in that of `COc1ccc(C(=O)O)c(O)c1` [2-Hydroxy-4-methoxy Benzoesäure], 2660 µM.
